Source: patent US20110124626A1, “BENZAZEPINE DERIVATIVES AND THEIR USE AS HISTAMINE H3 ANTAGONISTS” (TAKEDA PHARMACEUTICAL COMPANY LIMITED, priority 2008, published 2011)

These molecules were tested against T1, human H3 receptor (Homo sapiens, UniProt Q9Y5N1) (assay: In vitro H3 binding assay (3H-N-α-methyl-histamine competition binding)). Settings: membranes of CHO-K1 cells expressing human H3 receptor; 2 nM 3H-NαMH; read-out: hH3 binding IC50.
T1 construct: expressed in transfected cells
T1 sequence (Q9Y5N1 whole entry): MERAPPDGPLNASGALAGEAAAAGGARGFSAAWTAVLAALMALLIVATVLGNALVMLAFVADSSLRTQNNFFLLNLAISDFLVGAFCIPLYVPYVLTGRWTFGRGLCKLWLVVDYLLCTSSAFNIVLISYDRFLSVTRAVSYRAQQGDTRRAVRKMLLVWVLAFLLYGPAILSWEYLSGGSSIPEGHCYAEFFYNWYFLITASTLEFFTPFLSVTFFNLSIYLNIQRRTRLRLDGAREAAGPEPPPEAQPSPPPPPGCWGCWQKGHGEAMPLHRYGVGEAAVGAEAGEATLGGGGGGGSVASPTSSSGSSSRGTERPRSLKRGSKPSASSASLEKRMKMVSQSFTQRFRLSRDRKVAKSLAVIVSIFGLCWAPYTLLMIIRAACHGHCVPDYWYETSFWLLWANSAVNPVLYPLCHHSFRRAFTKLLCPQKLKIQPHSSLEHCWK
Protocol: The ability of compounds to bind to the H3 receptor was determined by measuring the reduction in tritiated N-α-methyl-histamine (^3H—NαMH) binding in a competition binding assay. Changes in the levels of bound radio-label were monitored by scintillation counting with a Trilux Microbeta (Perkin Elmer).
Membranes were prepared from CHO-K1 cells stably expressing human H3 receptor; routinely grown as monolayers in Ham's F12 medium (Invitrogen) supplemented with 10% Foetal Clone 111 (Hyclone), 500 μg/ml G418 (Invitrogen), 5 μg/ml blasticidine S (Invivogen) and […] Gentamicin (Sigma) in 5% CO2 at 37° C. Cells were grown to 80-95% confluency, rinsed once with 1×PBS (Invitrogen) and detached by incubating with 1×PBS containing 0.02% EDTA (Sigma) for 10 minutes at room temperature. Cells were collected by centrifugation at 900×g, 4° C. for 10 minutes. Cells were rinsed once with 1×PBS and re-suspended in ice cold homogenisation buffer (50 mM Tris-HCl (pH 7.4), 2.5 mM EDTA, 5 mM MgCl2, 200 mM Sucrose) at 1×10^7 cells/ml and kept on ice. Cells were homogenised on ice and debris removed by centrifugation at 500×g, 4° C. for 5 minutes. The resulting supernatant was centrifuged at 75,600×g, 4° C. for 60 minutes. Membranes were suspended in homogenisation buffer, protein concentration was determined (BCA Protein Assay kit (Pierce)), diluted to 2.2 mg/ml, dispensed into 1 ml aliquots and stored at −80° C.
Membranes were thawed on ice, sonicated with 4 cycles of 20 pulses (50% amplitude, 0.5 pulse) (UP200S Hielscher) on ice, diluted in assay buffer (50 mM Tris-HCl (pH7.4), 5 mM MgCl2) to 62.5 μg/ml. Compound was serially diluted in DMSO before being diluted 1:10 with assay buffer. 5 μg of membrane in 80 μl of assay buffer was added per well of a 96 well polystyrene plate (Corning). […] of compound was added per well. The assay was initiated by the addition of 10 μl of 20 nM ^3H—NαMH per well and incubated for one hour at room temperature with shaking. Total binding was determined in the presence of 1% DMSO and non-specific binding was determined by the inclusion of 1 μM R-α-methyl-histamine (RαMH). Incubations were then filtered through filtermat A (Perkin Elmer) and washed three times with assay buffer. Filtermats were dried at 42° C. for two hours, scintillant added and the level of bound radioactivity determined.
IC50 values for compounds were determined from seven point log scale dose-response studies and represent the concentration of compound required to inhibit 50% of the specific binding of 2 nM ^3H—NαMH (difference between total and non-specific binding). Curves were generated using the average of duplicate wells for each data point and analyzed using nonlinear regression of sigmoidal dose response (variable slope).
Work on `O=C(NCC1CCN(C2CCC2)CC1)c1ccc2c(c1)CCN(C1CCC1)CC2` [Example 11, 3-Cyclobutyl-N-((1-cyclobutylpiperidin-4-yl)methyl)-2,3,4,5-tetrahydro-1H-benzo[d]azepine-7-carboxamide] yielded an IC50 of 30 nM.
Work on `O=C(NCc1ccccc1)c1ccc2c(c1)CCN(C1CCCC1)CC2` [Example 19, N-Benzyl-3-cyclopentyl-2,3,4,5-tetrahydro-1H-benzo[d]azepine-7-carboxamide] yielded an IC50 of 20 nM.
`O=C(NCc1ccncc1)c1ccc2c(c1)CCN(C1CCCC1)CC2` [Example 21, 3-Cyclopentyl-N-(pyridin-4-ylmethyl)-2,3,4,5-tetrahydro-1H-benzo[d]azepine-7-carboxamide] was tested, and the IC50 was 13 nM.
With `CCNC(=O)c1ccc2c(c1)CCN(C1CCC1)CC2` [Example 25, 3-Cyclobutyl-N-ethyl-2,3,4,5-tetrahydro-1H-benzo[d]azepine-7-carboxamide] the IC50 was 37 nM.
For `CC(C)NC(=O)c1ccc2c(c1)CCN(C1CCC1)CC2` [Example 26, 3-Cyclobutyl-N-isopropyl-2,3,4,5-tetrahydro-1H-benzo[d]azepine-7-carboxamide], the IC50 was 36 nM.
`O=C(NC1CCC1)c1ccc2c(c1)CCN(C1CCC1)CC2` [Example 27, N,3-Dicyclobutyl-2,3,4,5-tetrahydro-1H-benzo[d]azepine-7-carboxamide] was tested, and the IC50 was 21 nM.
`O=C(NCC1CCCC1)c1ccc2c(c1)CCN(C1CCC1)CC2` [Example 30, 3-Cyclobutyl-N-(cyclopentylmethyl)-2,3,4,5-tetrahydro-1H-benzo[d]azepine-7-carboxamide] was tested, and the IC50 was 5 nM.
For `O=C(NCCc1ccccc1)c1ccc2c(c1)CCN(C1CCC1)CC2` [Example 38, 3-Cyclobutyl-N-phenethyl-2,3,4,5-tetrahydro-1H-benzo[d]azepine-7-carboxamide], the IC50 was 9 nM.
`O=C(NCc1ccccn1)c1ccc2c(c1)CCN(C1CCC1)CC2` [Example 45, 3-Cyclobutyl-N-(pyridin-2-ylmethyl)-2,3,4,5-tetrahydro-1H-benzo[d]azepine-7-carboxamide] was tested, and the IC50 was 13 nM.
In the case of `COc1ccc(CNC(=O)c2ccc3c(c2)CCN(C2CCC2)CC3)cc1` [Example 49, 3-Cyclobutyl-N-(4-methoxybenzyl)-2,3,4,5-tetrahydro-1H-benzo[d]azepine-7-carboxamide], the IC50 is reported as 34 nM.
`COC(=O)c1ccc(CNC(=O)c2ccc3c(c2)CCN(C2CCC2)CC3)cc1` [Example 50, Methyl 4-((3-cyclobutyl-2,3,4,5-tetrahydro-1H-benzo[d]azepine-7-carboxamido)methyl)benzoate] was tested, and the IC50 was 24 nM.
`O=C(NCc1ccccc1Br)c1ccc2c(c1)CCN(C1CCC1)CC2` [Example 54, N-(2-Bromobenzyl)-3-cyclobutyl-2,3,4,5-tetrahydro-1H-benzo[d]azepine-7-carboxamide] showed an IC50 of 10 nM.
With `O=C(NCc1ccccc1C(F)(F)F)c1ccc2c(c1)CCN(C1CCC1)CC2` [Example 57, 3-Cyclobutyl-N-(2-(trifluoromethyl)benzyl)-2,3,4,5-tetrahydro-1H-benzo[d]azepine-7-carboxamide] the IC50 was 12 nM.
For `O=C(NCc1ccccc1Cl)c1ccc2c(c1)CCN(C1CCC1)CC2` [Example 63, N-(2-Chlorobenzyl)-3-cyclobutyl-2,3,4,5-tetrahydro-1H-benzo[d]azepine-7-carboxamide], the IC50 was 6 nM.
`O=C(NCc1cccc(Cl)c1)c1ccc2c(c1)CCN(C1CCC1)CC2` [Example 65, N-(3-Chlorobenzyl)-3-cyclobutyl-2,3,4,5-tetrahydro-1H-benzo[d]azepine-7-carboxamide] showed an IC50 of 4 nM.
For `O=C(NCc1ccc(Cl)cc1)c1ccc2c(c1)CCN(C1CCC1)CC2` [Example 67, N-(4-Chlorobenzyl)-3-cyclobutyl-2,3,4,5-tetrahydro-1H-benzo[d]azepine-7-carboxamide], the IC50 was 11 nM.
In the case of `Cn1ccc2cc(CNC(=O)c3ccc4c(c3)CCN(C3CCC3)CC4)ccc21` [Example 75, 3-Cyclobutyl-N-((1-methyl-1H-indol-5-yl)methyl)-2,3,4,5-tetrahydro-1H-benzo[d]azepine-7-carboxamide], the IC50 is reported as 15 nM.
`O=C(NCc1cc(-c2cccs2)on1)c1ccc2c(c1)CCN(C1CCC1)CC2` [Example 84, 3-Cyclobutyl-N-((5-(thiophen-2-yl)isoxazol-3-yl)methyl)-2,3,4,5-tetrahydro-1H-benzo[d]azepine-7-carboxamide] showed an IC50 of 10 nM.
Molecule `Cc1oc(-c2ccccc2)nc1CNC(=O)c1ccc2c(c1)CCN(C1CCC1)CC2` [Example 85, 3-Cyclobutyl-N-((5-methyl-2-phenyloxazol-4-yl)methyl)-2,3,4,5-tetrahydro-1H-benzo[d]azepine-7-carboxamide] has an IC50 of 14 nM.
Work on `O=C(NCc1cccs1)c1ccc2c(c1)CCN(C1CCC1)CC2` [Example 87, 3-Cyclobutyl-N-(thiophen-2-ylmethyl)-2,3,4,5-tetrahydro-1H-benzo[d]azepine-7-carboxamide] yielded an IC50 of 4 nM.
Molecule `O=C(NCc1ccoc1)c1ccc2c(c1)CCN(C1CCC1)CC2` [Example 89, 3-Cyclobutyl-N-(furan-3-ylmethyl)-2,3,4,5-tetrahydro-1H-benzo[d]azepine-7-carboxamide] has an IC50 of 18 nM.
Work on `Cc1occc1CNC(=O)c1ccc2c(c1)CCN(C1CCC1)CC2` [Example 90, 3-cyclobutyl-N-((2-methylfuran-3-yl)methyl)-2,3,4,5-tetrahydro-1H-benzo[d]azepine-7-carboxamide] yielded an IC50 of 10 nM.
In the case of `Cc1cc(CNC(=O)c2ccc3c(c2)CCN(C2CCC2)CC3)c(C)o1` [Example 91, 3-cyclobutyl-N-((2,5-dimethylfuran-3-yl)methyl)-2,3,4,5-tetrahydro-1H-benzo[d]azepine-7-carboxamide], the IC50 is reported as 6 nM.
`Cc1nc(CNC(=O)c2ccc3c(c2)CCN(C2CCC2)CC3)c(C)o1` [Example 93, 3-cyclobutyl-N-((2,5-dimethyloxazol-4-yl)methyl)-2,3,4,5-tetrahydro-1H-benzo[d]azepine-7-carboxamide] showed an IC50 of 29 nM.
Work on `CCn1cc(CNC(=O)c2ccc3c(c2)CCN(C2CCC2)CC3)cn1` [Example 95, 3-Cyclobutyl-N-((1-ethyl-1H-pyrazol-4-yl)methyl)-2,3,4,5-tetrahydro-1H-benzo[d]azepine-7-carboxamide] yielded an IC50 of 18 nM.
For `Cc1nn(C)c(C)c1CNC(=O)c1ccc2c(c1)CCN(C1CCC1)CC2` [Example 96, 3-Cyclobutyl-N-((1,3,5-trimethyl-1H-pyrazol-4-yl)methyl)-2,3,4,5-tetrahydro-1H-benzo[d]azepine-7-carboxamide], the IC50 was 18 nM.
Work on `Cc1nn(C)cc1CNC(=O)c1ccc2c(c1)CCN(C1CCC1)CC2` [Example 98, 3-Cyclobutyl-N-((1,3-dimethyl-1H-pyrazol-4-yl)methyl)-2,3,4,5-tetrahydro-1H-benzo[d]azepine-7-carboxamide] yielded an IC50 of 15 nM.
`CCn1cc(CNC(=O)c2ccc3c(c2)CCN(C2CCC2)CC3)c(C)n1` [Example 99, 3-Cyclobutyl-N-((1-ethyl-3-methyl-1H-pyrazol-4-yl)methyl)-2,3,4,5-tetrahydro-1H-benzo[d]azepine-7-carboxamide] was tested, and the IC50 was 18 nM.
For `Cn1ncc(Cl)c1CNC(=O)c1ccc2c(c1)CCN(C1CCC1)CC2` [Example 102, N-((4-chloro-1-methyl-1H-pyrazol-5-yl)methyl)-3-cyclobutyl-2,3,4,5-tetrahydro-1H-benzo[d]azepine-7-carboxamide], the IC50 was 18 nM.
`CCn1cc(Cl)c(CNC(=O)c2ccc3c(c2)CCN(C2CCC2)CC3)n1` [Example 106, N-((4-chloro-1-ethyl-1H-pyrazol-3-yl)methyl)-3-cyclobutyl-2,3,4,5-tetrahydro-1H-benzo[d]azepine-7-carboxamide] showed an IC50 of 13 nM.
`Cn1nc(-c2cccs2)cc1CNC(=O)c1ccc2c(c1)CCN(C1CCC1)CC2` [Example 109, 3-Cyclobutyl-N-((1-methyl-3-(thiophen-2-yl)-1H-pyrazol-5-yl)methyl)-2,3,4,5-tetrahydro-1H-benzo[d]azepine-7-carboxamide] was tested, and the IC50 was 2 nM.
Molecule `Cc1nn(-c2ccccc2)c(C)c1CNC(=O)c1ccc2c(c1)CCN(C1CCC1)CC2` [Example 110, 3-Cyclobutyl-N-((3,5-dimethyl-1-phenyl-1H-pyrazol-4-yl)methyl)-2,3,4,5-tetrahydro-1H-benzo[d]azepine-7-carboxamide] has an IC50 of 17 nM.
`O=C(NCc1ncc[nH]1)c1ccc2c(c1)CCN(C1CCC1)CC2` [Example 113, N-((1H-Imidazol-2-yl)methyl)-3-cyclobutyl-2,3,4,5-tetrahydro-1H-benzo[d]azepine-7-carboxamide] showed an IC50 of 13 nM.
